From BindingDB's records for doi:10.1021/jm00119a018 (Southern Research Institute, 1988) come the findings set out here.

Bounds are passed on as bounds.

The target of the experiment is Bifunctional purine biosynthesis protein ATIC (Homo sapiens, UniProt P31939). In words: ChEBML_28408. The procedure:
Compound was tested for inhibition of AICAR formyltransferase

Bifunctional purine biosynthesis protein ATIC, sequence (P31939 whole entry): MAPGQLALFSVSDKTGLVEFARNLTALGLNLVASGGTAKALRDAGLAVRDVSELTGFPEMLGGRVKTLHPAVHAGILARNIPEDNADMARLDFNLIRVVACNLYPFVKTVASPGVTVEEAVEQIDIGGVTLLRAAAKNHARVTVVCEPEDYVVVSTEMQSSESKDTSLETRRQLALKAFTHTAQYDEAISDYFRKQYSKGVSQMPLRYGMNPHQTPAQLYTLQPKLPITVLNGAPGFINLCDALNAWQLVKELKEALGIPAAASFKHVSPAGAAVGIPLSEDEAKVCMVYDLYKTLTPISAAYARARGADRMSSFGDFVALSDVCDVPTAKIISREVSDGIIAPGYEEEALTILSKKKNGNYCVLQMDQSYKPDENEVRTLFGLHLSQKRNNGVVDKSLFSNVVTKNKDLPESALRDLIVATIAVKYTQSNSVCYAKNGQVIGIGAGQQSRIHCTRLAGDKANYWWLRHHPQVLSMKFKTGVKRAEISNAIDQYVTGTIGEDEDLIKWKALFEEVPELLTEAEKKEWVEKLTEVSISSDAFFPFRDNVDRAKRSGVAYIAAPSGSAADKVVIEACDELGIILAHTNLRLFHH

Usually IC50 stands for the concentration that gives 50% inhibition. Low readings indicate inhibition by little substance, high ones a need for much substance. On to `CC1c2c(nc(N)[nH]c2=O)NCC1CCc1ccc(C(=O)NC(CCC(=O)O)C(=O)O)cc1` (stereo not drawn) [(5RS, 6RS) 2-{4-[2-(2-Amino-5-methyl-4-oxo-3,4,5,6,7,8-hexahydro-pyrido[2,3-d]pyrimidin-6-yl)-ethyl]-benzoylamino}-pentanedioic acid], for which the IC50 was above 20 µM.
